US20060040876A1, “Modulation of peroxisome proliferator-activated receptors” (priority 2004, published 2006)

Tests used:
[1] = tested on: 15-keto prostaglandin-Δ^13-reductase; test: 15-keto prostaglandin-Δ^13-reductase inhibition assay; type: biochemical; conditions: different concentrations of inhibitor, incubated 2 hours at 37° C.
Description: Enzymatic activity was determined as follows. 10 μg of the recombinant mouse PGR-2 protein was incubated at 37° C. in a reaction buffer containing 0.1M Tris-HCl (pH 7.4), 0.5 mM NADPH, and 0.57 mM 15-keto PGE2. The reaction was conducted at 37° C. in the dark for 10 minutes and terminated by adding 700 μl of a buffer which contained 50 mM potassium hydrogen phthalate, pH 3.0, and 1% Tween 20. 200 μl of a color development reagent, which contained 790 μM indonitrotetrazolium chloride, 60 μM phenazene methosulfate, and 1% Tween 20, was added to oxidize any unreacted NADPH. Absorbance at 490 nm was measured by an ELISA plate reader. A standard curve was generated using reaction buffers containing serially diluted amounts of NADPH. […]
A series of compounds were tested for their inhibitory effects on 15-keto prostaglandin-Δ^13-reductase activity. The inhibition assay was performed following the procedure described above. Different concentrations of 15-keto prostaglandin-Δ^13-reductase inhibitors were added to the reaction mixture and incubated for 2 hours at 37° C.

[2] = tested on: Female diabetic mice (C57BLKS/J-m+/+Lep^db); test: Blood glucose levels in insulin-resistant, hyperglycemic diabetic mice; type: in vivo, mouse; conditions: 25 mg/kg intraperitoneally twice a day for two days
Description: The in vivo effect of another inhibitor, 2,2′-dihydroxychalcone, on glucose metabolism was also investigated. Female diabetic mice were obtained from the Jackson Laboratory (C57BLKS/J-m+/+Lep^db, 12 to 13 weeks old). These mice were characterized as insulin-resistant and hyperglycemic. 25 mg/kg of 2,2′-dihydroxychalcone (n=8) or placebo (n=4, final concentration against body fluid: 0.5% DMSO/1% ethanol) was injected intraperitoneally to the mice twice a day for two days. The mice were then fasted from the 48th hour through 52nd hour after the first injection. Blood samples were collected from the retro-orbital sinus before the first injection, and every two hours after two days of treatment. Blood glucose levels were measured by an electrode-type blood glucose meter (HORIBA, AntSense II, Japan).

[3] = tested on: 3T3-L1 cells; test: Glucose transport assay, uptake of 2-deoxy-D-[3H]glucose in differentiated 3T3-L1 cells; type: cell-based, mouse
Description: 3T3-L1 cells were induced to differentiate in the same manner as described above. A glucose transport assay was performed by measuring uptake of 2-deoxy-D-[3H]glucose as described by Fingar et al. See Fingar et al., Endocrinology 134:728-735. 1.67 μM of the inhibitor or 45 nM of a PPAR agonist, i.e., AVANDIA, was added to the cells. 10 μM cytochalasin-B was used to measure background glucose uptake levels.

[4] = target: T1, recombinant mouse PGR-2 protein (Mus musculus, UniProt Q8VDQ1); test: Substrate specificity and kinetics of recombinant PGR-2 (NADPH oxidation, absorbance at 490 nm); type: biochemical; conditions: for specific activity as substrate of PGR-2: 15-keto PGE2 replaced with the test substrate, 0.5 mM NADPH, 37° C., 10 minutes
T1 construct: GST (N); made in house; host or cells: E. coli
Description: Mouse PGR-2 was recombinantly expressed in E. coli as a GST fusion protein following standard procedures. The recombinant PGR-2 protein thus obtained was used to determine substrate specificity and enzymatic kinetics.
Enzymatic activity was determined as follows. 10 μg of the recombinant mouse PGR-2 protein was incubated at 37° C. in a reaction buffer containing 0.1M Tris-HCl (pH 7.4), 0.5 mM NADPH, and 0.57 mM 15-keto PGE2. The reaction was conducted at 37° C. in the dark for 10 minutes and terminated by adding 700 μl of a buffer which contained 50 mM potassium hydrogen phthalate, pH 3.0, and 1% Tween 20. 200 μl of a color development reagent, which contained 790 μM indonitrotetrazolium chloride, 60 μM phenazene methosulfate, and 1% Tween 20, was added to oxidize any unreacted NADPH. Absorbance at 490 nm was measured by an ELISA plate reader. A standard curve was generated using reaction buffers containing serially diluted amounts of NADPH.
Substrate specificity of PGR-2 was determined using the just-described procedure, except that 15-keto PGE2 was replaced with each of six prostaglandin substrates, each of three downstream metabolites, or leukotriene B4.
Unlike PGR/LTB4DH, PGR-2 used NADPH as a cofactor much more efficiently than NADH.

[5] = tested on: endogenous PPAR; test: Reporter gene assay of endogenous PPAR activity in differentiating 3T3-L1 cells; type: cell-based, mouse; conditions: 3T3-L1 cells induced to differentiate for two days, transfected with reporter gene
Description: (§1) The effect of prostaglandin on PPAR-gamma activity in adipocytes was investigated. After treatment with a medium that induces cell differentiation, 3T3-L1 cells were treated from day 2 to 4 during adipogenesis with 14 μM 15-keto PGE2, 13,14-dihydro-15-keto PGE2, 15-keto PGF2α, 13,14-dihydro-15-keto PGF2α, or 4.5 μM of BRL49653, a PPAR-gamma agonist. See Forman et al., Cell (1995) 83:803-812. At day 6, aggregates of lipid droplets were stained with oil-red O for observation. […] After being induced to differentiate for two days, the 3T3-L1 cells were transfected with a reporter gene.

[6] = tested on: aP2; test: aP2 expression in 3T3-L1 cells; type: cell-based, mouse; conditions: even in the absence of MIX
[7] = tested on: 3T3-L1 cells; test: Adipogenesis in 3T3-L1 cells, lipid droplets stained with oil-red O; type: cell-based, mouse; conditions: 14 μM, day 2 to 4 during adipogenesis; stained at day 6
Description: as §1

[8] = tested on: IRS-1; test: IRS-1 protein expression in 3T3-L1 cells; type: cell-based, mouse
Description: (§2) Also examined was the ability of 15-keto PGE2 to induce protein expression of adipogenesis-specific, PPAR-gamma target genes, i.e., IRS-1 and -2.

[9] = tested on: PPAR-gamma1 and PPAR-gamma2; test: PPAR-gamma1 and PPAR-gamma2 protein expression in 3T3-L1 cells; type: cell-based, mouse; conditions: 15-keto PGE2 and MIX added with insulin and dexamethasone
[10] = tested on: IRS-2; test: IRS-2 protein expression in 3T3-L1 cells; type: cell-based, mouse; conditions: in the presence of insulin and dexamethasone
Description: as §2

[11] = target: T2, PPAR-gamma (Homo sapiens, UniProt P37231); test: Luciferase reporter with PPAR-gamma ligand-binding domain fused to GAL4 DNA-binding domain in 3T3-L1 cells; type: cell-based
T2 construct: expressed in transfected cells; host or cells: 3T3-L1 cells
T2 sequence (P37231 238-503 limits assumed): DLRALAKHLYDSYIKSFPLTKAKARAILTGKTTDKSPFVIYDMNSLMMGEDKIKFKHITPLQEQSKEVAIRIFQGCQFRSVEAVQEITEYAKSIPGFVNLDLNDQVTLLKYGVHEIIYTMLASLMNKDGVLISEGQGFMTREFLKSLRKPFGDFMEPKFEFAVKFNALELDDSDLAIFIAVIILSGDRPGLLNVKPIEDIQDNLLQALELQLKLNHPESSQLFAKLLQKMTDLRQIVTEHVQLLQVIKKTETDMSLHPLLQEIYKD
Description: A luciferase reporter gene was transfected to 3T3-L1 cells together with the ligand-binding domain of PPAR-alpha, PPAR-gamma or PPAR-delta fused to a yeast GAL4 DNA-binding domain.

T1 sequence (Q8VDQ1 whole entry): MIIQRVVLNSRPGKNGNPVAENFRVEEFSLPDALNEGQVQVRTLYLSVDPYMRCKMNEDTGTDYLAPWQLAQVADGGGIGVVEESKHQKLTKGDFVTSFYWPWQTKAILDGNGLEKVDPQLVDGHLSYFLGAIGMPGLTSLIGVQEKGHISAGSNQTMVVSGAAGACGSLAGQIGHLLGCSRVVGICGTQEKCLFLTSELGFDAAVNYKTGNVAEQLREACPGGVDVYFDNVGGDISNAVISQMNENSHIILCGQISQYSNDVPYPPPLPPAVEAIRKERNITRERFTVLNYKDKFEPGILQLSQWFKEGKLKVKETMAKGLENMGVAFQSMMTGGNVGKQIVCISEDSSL

Structure (SMILES)	inhibition of 15-keto prostaglandin-Δ^13-reductase activity [1]	specific activity as substrate of PGR-2 [4]	further results
O=C(/C=C/c1ccccc1O)c1ccccc1O [2,2′-dihydroxychalcone]	inhibited		blood glucose levels compared to placebo controls [2]: significant reduction
O=C(/C=C/c1cccc(O)c1)c1ccccc1O [3,2′-dihydroxychalcone]	inhibited		
O=c1oc2ccccc2c(O)c1Cc1c(O)c2ccccc2oc1=O [3,3′-methylene-bis(4-hydroxycoumarin)]	inhibited		ability to enhance glucose uptake compared with AVANDIA ([3]; 1.67 μM inhibitor vs 45 nM AVANDIA): comparable to that of AVANDIA; increase of glucose uptake ([3]; 1.67 μM inhibitor, 100 nM insulin, differentiated 3T3-L1 cells): 30 folds
O=C(/C=C/c1ccc(O)cc1)c1ccccc1O [4,2′-dihydroxychalcone]	inhibited		
O=c1cc(O)c2ccccc2o1 [4-hydroxycoumarin]	inhibited		
COc1cc(O)c(C(=O)/C=C/c2cc(Br)ccc2O)c(OC)c1 [5-bromo-2,2′-dihydroxy-4′,6′-dimethoxychalcone]	inhibited		
CCCCC[C@H](O)/C=C/[C@@H]1[C@@H](CC(=O)CCCCC(=O)O)[C@@H](O)C[C@H]1O [6-keto PGF1α]		no specific activity was detected	
CCCCC[C@H](O)/C=C/[C@@H]1[C@@H](C/C=C\CCCC(=O)O)[C@@H](O)C[C@@H]1O [11b-PGF2α]		no specific activity was detected	
CCCCCC(=O)CCC1C(=O)CC(O)C1C/C=C\CCCC(=O)O (stereo not shown) [13,14-dihydro-15-keto PGD2]		no specific activity was detected	
CCCCCC(=O)CC[C@@H]1[C@@H](C/C=C\CCCC(=O)O)[C@@H](O)C[C@H]1O [13,14-dihydro-15-keto PGF2α, reference compound]		no specific activity was detected	endogenous PPAR activity (reporter gene) [5]: failed to increase PPAR activity
CCCCCC(=O)/C=C/[C@H]1[C@H](O)CC(=O)[C@@H]1CCCCCCC(=O)O [15-keto PGE1]		reacted specifically	
CCCCCC(=O)/C=C/[C@H]1[C@H](O)CC(=O)[C@@H]1C/C=C\CCCC(=O)O [15-keto PGE2]			expression of aP2 [6]: strongly induced; adipogenesis (lipid droplets, oil-red O) [7]: effectively enhanced adipogenesis at a level similar to BRL49653; endogenous PPAR activity (reporter gene) [5]: enhanced endogenous PPAR activity significantly; amount of IRS-1 protein [8]: did not increase; PPAR-gamma1 and PPAR-gamma2 expression [9]: significantly enhanced; IRS-2 expression [10]: enhanced the expression to a level similar to MIX; activation of PPAR-gamma (GAL4-LBD luciferase reporter) [11]: activated; efficiency of PGR-2 catalyzed conversion into 13,14-dihydro-15-keto prostaglandin ([4]; kinetics studies, recombinant PGR-2): most efficiently
CCCCCC(=O)/C=C/[C@@H]1[C@@H](CCCCCCC(=O)O)[C@@H](O)C[C@H]1O [15-keto PGF1α]		reacted specifically	
CCCCCC(=O)/C=C/[C@@H]1[C@@H](C/C=C\CCCC(=O)O)[C@@H](O)C[C@H]1O [15-keto PGF2α]		reacted specifically	endogenous PPAR activity (reporter gene) [5]: enhanced endogenous PPAR activity significantly; activation of PPAR-gamma (GAL4-LBD luciferase reporter) [11]: activated
O=c1cc(-c2ccc(O)c(O)c2)oc2cc(O)cc(O)c12 [luteolin]	inhibited		
O.O.O=c1c(O)c(-c2ccc(O)c(O)c2)oc2cc(O)cc(O)c12 [quercetin dehydrate]	inhibited		
CC(=O)CC(c1ccccc1)c1c(O)c2ccccc2oc1=O (stereo not shown) [warfarin, reference compound]	inhibited		

More lines, main results first:

inhibition of 15-keto prostaglandin-Δ^13-reductase activity [1]	specific activity as substrate of PGR-2 [4]	Structure (SMILES)	further results
inhibited		O=C(/C=C/c1ccccc1O)c1ccc(O)cc1O [2,2′,4′-trihydroxychalcone]	
inhibited		O=C(/C=C/c1ccccc1O)c1cc(O)ccc1O [2,2′,5′-trihydroxychalcone]	
inhibited		O=C(/C=C/c1ccccc1)c1ccc(O)cc1O [2′,4′-dihydroxychalcone]	
inhibited		O=c1c(O)c(-c2cccc(O)c2)oc2ccccc12 [3,3′-dihydroxyflavone]	
inhibited		O=c1cc(-c2ccccc2)oc2cc(O)cc(O)c12 [5,7-dihydroxyflavone]	
	no specific activity was detected	CCCCCC(=O)CC[C@H]1[C@H](O)CC(=O)[C@@H]1C/C=C\CCCC(=O)O [13,14-dihydro-15-keto PGE2, reference compound]	endogenous PPAR activity (reporter gene) [5]: failed to increase PPAR activity
	no specific activity was detected	CCCCC[C@H](O)/C=C/[C@@H]1[C@@H](C/C=C\CCCC(=O)O)[C@H](O)C[C@H]1O [PGF2β]	
inhibited		O=c1c(O)c(-c2ccc(O)cc2)oc2cc(O)cc(O)c12 [kaempferol]	
	no specific activity was detected	CCCCC/C=C\C[C@@H](O)/C=C/C=C/C=C\[C@@H](O)CCCC(=O)O [leukotriene B4]	
